Values quoted from earlier work as cited in US8778892B2, “Compounds and methods for treatment of solid tumors” (B & G Partners, LLC, priority 2008, dated 2014).

Molecular target: CD44 (Homo sapiens, UniProt P16070)
Details: intact cells

CD44, sequence (P16070 21-742, species assumed): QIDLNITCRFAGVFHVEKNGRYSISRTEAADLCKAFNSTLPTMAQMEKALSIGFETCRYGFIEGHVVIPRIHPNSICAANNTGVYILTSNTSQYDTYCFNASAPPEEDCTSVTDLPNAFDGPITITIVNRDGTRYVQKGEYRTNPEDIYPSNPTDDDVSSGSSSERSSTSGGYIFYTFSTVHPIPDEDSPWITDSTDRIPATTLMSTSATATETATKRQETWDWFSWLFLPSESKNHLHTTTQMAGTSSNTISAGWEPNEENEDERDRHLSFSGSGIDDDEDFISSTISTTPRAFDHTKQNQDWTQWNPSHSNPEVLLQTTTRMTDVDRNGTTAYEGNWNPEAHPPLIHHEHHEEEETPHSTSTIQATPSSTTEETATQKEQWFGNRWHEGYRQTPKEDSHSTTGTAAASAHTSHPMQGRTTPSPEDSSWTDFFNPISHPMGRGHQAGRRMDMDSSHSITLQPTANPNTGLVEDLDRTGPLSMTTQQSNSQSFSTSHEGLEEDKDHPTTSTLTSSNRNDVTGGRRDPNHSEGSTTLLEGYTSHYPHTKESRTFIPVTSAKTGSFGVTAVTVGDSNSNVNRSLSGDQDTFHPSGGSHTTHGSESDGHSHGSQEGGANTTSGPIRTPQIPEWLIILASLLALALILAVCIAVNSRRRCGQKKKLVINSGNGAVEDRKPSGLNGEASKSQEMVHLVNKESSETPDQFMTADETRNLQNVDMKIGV

Row | capacity to compete with hyaluronan for binding | Substance
1 | little capacity to compete | heparan sulfate
2 | little capacity to compete | chondroitin sulfate
